In patent US20260248783A1 (ASCLETIS BIOSCIENCE CO., LTD., priority 2021, published 2026):
pEC50, pIC50: −log10 of the molar value. Where a name gives a salt, the structure may show the parent alone.

Columns and labels:
[1] = biological target: T1, extracellular domains of PD-L1 (Homo sapiens, UniProt Q9NZQ7); test: PD-L1 Dimerization; format: biochemical; details: PD-L1-Eu and PD-L1-A2, ratio 665 nm/615 nm
T1 construct: specifically dimerize the extracellular domains of PD-L1
Procedure: Example 108. PD-L1 Dimerization
Compounds were tested in biochemical protein-protein interaction assays to determine if they can specifically dimerize the extracellular domains of PD-L1. • (1) Diluted cpd 1:3 in succession in DMSO for each column for 10 samples • (2) Transferred 0.2 μL cpds solution in each row to 384 assay plate using Echo, each column containing 2 replicates • (3) Added 20 μL prepared mixture include PD-L1-Eu and PD-L1-A2 solution to assay plate, centrifuged at 1000 rpm for 1 min. • (4) Incubated at 25° C. for […]. • (5) Read fluorescence signal on Envision 2104 plate reader. • (6) Read the Ratio (665 nm/615 nm) signal on Envision. • (7) Analyzed the raw data using the equation (V. Data analysis)

[2] = system: Hep3B-OS8-hPDL1 and T cells; test: Hep3B-OS8-hPDL1 and T Cells Co-Culture Assay (IFN-γ by ELISA); format: cell-based; details: T-cell, Hep3B-OS8-hPDL1 and human CD3+ T cells, 72 hours, read-out: Tumor and T Cell EC50
Procedure: Example 110. Hep3B-OS8-hPDL1 and T Cells Co-Culture Assay
1. Hep3B-OS8-hPDL1 cells were cultured in 1640 medium supplemented with 10% fetal bovine serum, 1% penicillin and streptomycin, in which 100 μg/mL G418 and Hygromycin B were also added.
2. Hep3B-OS8-hPDL1 cells were harvested and treated with 10 μg/mL mitomycin C at 37° C. for 1.5 h, and the cells were then washed thoroughly with PBS for four times.
3. Cells were re-suspended with RPMI 1640 medium containing 10% FBS and the cell density was adjusted to 5×10^5 cells/mL.
4. Cells were seeded into 96-well flat bottom plate (2.5×10^4 cells/50 μL/well).
b. CD3+ T cells isolation (30 mL blood)
5. The human blood sample from an individual donor was diluted by the same volume of sterile PBS, for instance add 25 mL sterile PBS into 25 mL fresh whole blood and mix sufficiently by gentle shake.
6. Transferred 15 mL Lymphoprep medium into a new 50 mL centrifuge tube.
7. Added the diluted blood sample as soft as possible onto the surface of the Ficoll medium to make sure there is a clear dividing line between the two liquids, and the volume ratio between Ficoll and diluted blood (30 mL) is 1:2.
8. Moved the tube gently to centrifuge, at 1000×g, 25 min, 20° C., with the acceleration (5) and Min deceleration (0) settings during the centrifugation.
9. Four interfaces in all could be observed after the centrifugation, which are layers of plasma, mononuclear cells, the Ficoll medium and RBCs from top to bottom, and move the tube as gently as possible so as keep the four interfaces separated. Absorbed and transferred the second layer of mononuclear cells into another new sterile centrifuge tube carefully, and absorbed certain volume of plasma instead of the Ficoll medium if inevitable.
10. Added sterile PBS of the three times the volume of PBMCs in the tube with PBMC.
11. Washed the cells twice with 5-10 mL PBS before cell counting with cytometer. Centrifuge at 350×g, 10 min, 20° C. With the acceleration (5) and deceleration (5) settings during the centrifugation.
12. Resuspended the cells with recommended medium and adjust the density of the PBMCs to the final concentration of 5×10^7 cells/mL.
13. Isolated CD3+ T cells with EasySep™ Human T Cell Isolation Kit (STEMCELL Technologies #17951), and the cells were seeded into 96-well flat bottom plate (5×10^4 cells/100 μL/well). c. Compounds solutions preparation
14. Prepared the Compounds dilutions in RPMI 1640 medium with 10% FBS according to the Layout. 15. Added compounds into each well in a volume of 50 μL. {3 compounds (GLC01-258, GLC01-269, GLC01-465) in 7 concentrations (0.03, 0.1, 0.3, 1, 3, 10 and 30 μM) and 6 compounds (GLC01-411, GLC01-292, GLC01-445, GLC01-475, GLC01-470 and GLC01-468) in the same concentration (1 μM)}.
16. Keytruda was included as positive control, the concentration was 5 μg/mL. 17. Incubated for 72 hours at 37° C., 5% CO2.
18. Collected supernatant by centrifugation and measure IFN-γ by ELISA.

[3] = biological target: T2, PD-1/PD-L1 (Homo sapiens, UniProt Q9NZQ7); test: PD-1/PD-L1 Homogeneous Time-Resolved Fluorescence (HTRF) Binding Assay; details: PD-1/PD-L1 HTRF activity; 3 nM PD1, 10 nM PD-L1, 25° C.
T2 construct: Recombinant human PD-L1 protein (19-238) with a Histag at the C-terminus; purchased AcroBiosystems PD1-H5229 (PD-L1); PD1-H5257 (PD-1)
T2 sequence (Q9NZQ7 19-238): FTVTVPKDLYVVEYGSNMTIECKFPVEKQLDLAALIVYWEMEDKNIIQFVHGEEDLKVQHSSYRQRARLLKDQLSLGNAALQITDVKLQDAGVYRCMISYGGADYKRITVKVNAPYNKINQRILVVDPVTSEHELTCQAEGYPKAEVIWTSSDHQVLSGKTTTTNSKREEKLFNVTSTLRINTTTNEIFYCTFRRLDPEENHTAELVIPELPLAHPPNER
Summary of the method: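 Human PD-L1 (19-238, His-tag) 10 nM and PD-1 (25-167, Fc-tag) 3 nM preincubated 40 min with inhibitor in PBS pH 7.4, 0.05% Tween-20, 0.1% BSA, 1% DMSO, 25 °C. Eu-anti-human IgG (1 nM) and anti-His-APC (20 nM) added, 60 min, 665/620 nm ratio; IC50 from percent control activity versus log concentration.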

T1 sequence (Q9NZQ7 19-238 limits assumed): as the sequence (Q9NZQ7 19-238) above

| pEC50 [1] | pEC50 [2] | pIC50 [3] | SMILES |
| --- | --- | --- | --- |
| > 7.30 | > 7.30 | > 8.00 | Cc1cn2nc(-c3cccc(-c4cccc(-c5cc6c(=O)n(C[C@@H]7CCCN7)c(C)cn6n5)c4Cl)c3Cl)cc2c(=O)n1C[C@@H]1CCCN1 [Compound 36, 2,2′-(2,2′-dichloro-[1,1′-biphenyl]-3,3′-diyl)bis(6-methyl-5-(((S)-pyrrolidin-2-yl)methyl)pyrazolo[1,5-a]pyrazin-4(5H)-one) dihydrochloride] |
| 7.00 to 7.30 | ≤ 7.00 | > 8.00 | Cc1cn2nc(-c3cccc(-c4cccc(-c5cc6c(=O)n(CCN7CC[C@H](C(=O)O)C7)c(C)cn6n5)c4Cl)c3Cl)cc2c(=O)n1CCN1CC[C@H](C(=O)O)C1 [Compound 47, (3S,3'S)-1,1′-(((2,2′-dichloro-[1,1′-biphenyl]-3,3′-diyl)bis(6-methyl-4-oxopyrazolo[1,5-a]pyrazine-2,5(4H)-diyl))bis(ethane-2,1-diyl))bis(pyrrolidine-3-carboxylic acid)] |
| 7.00 to 7.30 | 7.00 to 7.30 | > 8.00 | Cc1cn2cc(-c3cccc(-c4cccc(-c5cc6c(=O)n(CCNCCO)c(C)cn6c5)c4Cl)c3Cl)cc2c(=O)n1CCNCCO [Compound 51, 7,7′-(2,2′-dichloro-[1,1′-biphenyl]-3,3′-diyl)bis(2-(2-((2-hydroxyethyl)amino)ethyl)-3-methylpyrrolo[1,2-a]pyrazin-1(2H)-one)] |
| > 7.30 | 7.00 to 7.30 | > 8.00 | Cc1cn2nc(-c3cccc(-c4cccc(-c5cc6c(=O)n(CCNCCO)c(C)cn6n5)c4Cl)c3Cl)cc2c(=O)n1CCNCCO [Compound 52, 2,2′-(2,2′-dichloro-[1,1′-biphenyl]-3,3′-diyl)bis(5-(2-((2-hydroxyethyl)amino)ethyl)-6-methylpyrazolo[1,5-a]pyrazin-4(5H)-one)] |
|  | ≤ 7.00 | > 8.00 | Cc1cn2cc(-c3cccc(-c4cccc(-c5cc6c(=O)n(CCN7CC[C@H](C(=O)O)C7)c(C)cn6c5)c4Cl)c3Cl)cc2c(=O)n1CCN1CC[C@H](C(=O)O)C1 [Compound 53, (3S,3'S)-1,1′-(((2,2′-dichloro-[1,1′-biphenyl]-3,3′-diyl)bis(3-methyl-1-oxopyrrolo[1,2-a]pyrazine-7,2(1H)-diyl))bis(ethane-2,1-diyl))bis(pyrrolidine-3-carboxylic acid)] |
| 7.00 to 7.30 | > 7.30 | > 8.00 | Cc1cn2nc(-c3cccc(-c4cccc(-c5cc6c(=O)n(CCN[C@@H](CO)C(=O)O)c(C)cn6n5)c4Cl)c3Cl)cc2c(=O)n1CCN[C@@H](CO)C(=O)O [Compound 57, (2S,2'S)-2,2′-((((2,2′-dichloro-[1,1′-biphenyl]-3,3′-diyl)bis(6-methyl-4-oxopyrazolo[1,5-a]pyrazine-2,5(4H)-diyl))bis(ethane-2,1-diyl))bis(azanediyl))bis(3-hydroxypropanoic acid)] |
| 7.00 to 7.30 | ≤ 7.00 | > 8.00 | Cc1cn2cc(-c3cccc(-c4cccc(-c5cc6c(=O)n(CCN[C@@H](CO)C(=O)O)c(C)cn6c5)c4Cl)c3Cl)cc2c(=O)n1CCN[C@@H](CO)C(=O)O [Compound 63, (2S,2'S)-2,2′-((((2,2′-dichloro-[1,1′-biphenyl]-3,3′-diyl)bis(3-methyl-1-oxopyrrolo[1,2-a]pyrazine-7,2(1H)-diyl))bis(ethane-2,1-diyl))bis(azanediyl))bis(3-hydroxypropanoic acid)] |
|  | > 7.30 | 7.00 to 8.00 | Cc1cn2nc(-c3cccc(-c4cccc(-c5cc6c(=O)n(CCN7CC[C@H](O)[C@H]7C(=O)O)c(C)cn6n5)c4Cl)c3Cl)cc2c(=O)n1CCN1CC[C@H](O)[C@H]1C(=O)O [Compound 89, (2S,2'S,3S,3'S)-1,1′-(((2,2′-dichloro-[1,1′-biphenyl]-3,3′-diyl)bis(6-methyl-4-oxopyrazolo[1,5-a]pyrazine-2,5(4H)-diyl))bis(ethane-2,1-diyl))bis(3-hydroxypyrrolidine-2-carboxylic acid)] |
